One assay addresses Vps34 (Homo sapiens, UniProt Q8NEB9). Nature of the assay: Kinase Glo Luminescent Kinase Assay (Kglo), assay C. The format is biochemical. To be noted: read-out: Assay C VPS34 IC50.
Another assay has as its target PI 3-kinase beta (Homo sapiens, UniProt P42338). Nature of the assay: Kinase Glo Luminescent Kinase Assay (Kglo), assay B. The format is biochemical. To be noted: read-out: Assay B PI3Kβ IC50. On the technique in general: Kinase-Glo measures the ATP left after a reaction by luminescence.
The next assay concerns the target mTOR (Homo sapiens, UniProt P42345). Briefly: Lanthascreen kinase binding assay, assay G. Particulars: read-out: Assay G mTOR IC50.
The target of the next assay is PI 4-kinase beta (Homo sapiens, UniProt Q9UBF8). Briefly: Kinase Glo Luminescent Kinase Assay (Kglo), assay D. Particulars: read-out: Assay D PI4Kβ IC50. The format is biochemical.
Chain of PI 4-kinase beta (Q9UBF8 whole entry): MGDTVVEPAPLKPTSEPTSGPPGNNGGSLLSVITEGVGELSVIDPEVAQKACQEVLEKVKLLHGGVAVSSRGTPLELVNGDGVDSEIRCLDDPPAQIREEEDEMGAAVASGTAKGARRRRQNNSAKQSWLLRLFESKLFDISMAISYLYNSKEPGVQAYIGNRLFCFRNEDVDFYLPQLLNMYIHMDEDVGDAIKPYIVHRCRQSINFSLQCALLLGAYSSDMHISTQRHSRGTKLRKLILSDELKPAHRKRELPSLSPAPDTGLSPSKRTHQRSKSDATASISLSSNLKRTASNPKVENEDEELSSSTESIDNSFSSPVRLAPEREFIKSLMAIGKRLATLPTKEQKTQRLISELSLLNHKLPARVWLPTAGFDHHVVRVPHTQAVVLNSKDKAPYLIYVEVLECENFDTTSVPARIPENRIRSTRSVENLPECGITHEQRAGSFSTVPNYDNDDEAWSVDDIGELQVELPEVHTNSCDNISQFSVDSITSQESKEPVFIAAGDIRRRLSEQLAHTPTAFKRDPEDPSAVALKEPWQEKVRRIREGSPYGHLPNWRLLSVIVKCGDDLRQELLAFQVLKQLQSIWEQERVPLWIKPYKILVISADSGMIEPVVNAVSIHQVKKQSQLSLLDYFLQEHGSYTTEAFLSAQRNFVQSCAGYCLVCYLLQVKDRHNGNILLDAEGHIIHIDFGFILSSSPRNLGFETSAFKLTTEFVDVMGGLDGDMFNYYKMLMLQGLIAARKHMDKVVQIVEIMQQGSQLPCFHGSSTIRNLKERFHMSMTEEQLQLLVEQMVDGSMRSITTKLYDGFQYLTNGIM
The target in the next assay is PI 3-kinase delta (Homo sapiens, UniProt O00329). Briefly: TR-FRET Adapta assay, assay F. In general terms: TR-FRET usually uses a lanthanide donor and a delayed reading to cut background.
Another assay concerns the target PI 3-kinase alpha (Homo sapiens, UniProt P42336). Briefly: Kinase Glo Luminescent Kinase Assay (Kglo), assay A. The class given is biochemical. Particulars: read-out: Assay A PI3Kα IC50.
In another assay the target is PI 3-kinase gamma (Homo sapiens, UniProt P48736). Briefly: TR-FRET Adapta assay, assay E. The class given is biochemical. Particulars: read-out: Assay E PI3Kγ IC50.
Chain of PI 3-kinase gamma (P48736 whole entry): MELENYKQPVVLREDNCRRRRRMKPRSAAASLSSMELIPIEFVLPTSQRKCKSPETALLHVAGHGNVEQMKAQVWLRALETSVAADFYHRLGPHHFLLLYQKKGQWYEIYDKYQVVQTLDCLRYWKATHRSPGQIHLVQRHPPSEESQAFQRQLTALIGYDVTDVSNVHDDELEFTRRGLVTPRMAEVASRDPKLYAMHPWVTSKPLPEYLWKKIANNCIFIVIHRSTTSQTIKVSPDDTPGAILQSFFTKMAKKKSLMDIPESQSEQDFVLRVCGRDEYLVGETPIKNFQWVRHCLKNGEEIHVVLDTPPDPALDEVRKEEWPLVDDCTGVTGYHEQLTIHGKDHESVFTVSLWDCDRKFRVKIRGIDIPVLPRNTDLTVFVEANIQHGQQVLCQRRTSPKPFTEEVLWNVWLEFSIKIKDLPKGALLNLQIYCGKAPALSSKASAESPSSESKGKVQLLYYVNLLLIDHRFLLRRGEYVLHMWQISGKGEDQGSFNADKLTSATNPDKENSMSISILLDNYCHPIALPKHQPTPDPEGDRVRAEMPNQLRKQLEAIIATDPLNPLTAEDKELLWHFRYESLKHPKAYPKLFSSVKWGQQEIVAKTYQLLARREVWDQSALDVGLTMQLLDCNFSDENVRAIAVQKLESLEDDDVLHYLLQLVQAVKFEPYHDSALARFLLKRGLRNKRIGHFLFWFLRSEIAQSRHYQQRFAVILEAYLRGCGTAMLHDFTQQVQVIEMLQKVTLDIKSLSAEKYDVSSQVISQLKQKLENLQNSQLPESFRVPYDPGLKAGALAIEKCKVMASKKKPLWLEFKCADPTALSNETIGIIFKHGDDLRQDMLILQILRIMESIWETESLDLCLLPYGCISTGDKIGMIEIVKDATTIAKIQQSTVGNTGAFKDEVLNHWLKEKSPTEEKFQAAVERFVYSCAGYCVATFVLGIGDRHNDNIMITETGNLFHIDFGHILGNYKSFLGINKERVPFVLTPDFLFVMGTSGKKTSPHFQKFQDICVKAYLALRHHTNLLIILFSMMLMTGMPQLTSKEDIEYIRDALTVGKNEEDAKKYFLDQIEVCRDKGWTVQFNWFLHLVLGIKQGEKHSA

pIC50: −log10 of the molar value. Read-outs that look alike come from different tables or passages of the source.

Chain of Vps34 (Q8NEB9 whole entry, species assumed): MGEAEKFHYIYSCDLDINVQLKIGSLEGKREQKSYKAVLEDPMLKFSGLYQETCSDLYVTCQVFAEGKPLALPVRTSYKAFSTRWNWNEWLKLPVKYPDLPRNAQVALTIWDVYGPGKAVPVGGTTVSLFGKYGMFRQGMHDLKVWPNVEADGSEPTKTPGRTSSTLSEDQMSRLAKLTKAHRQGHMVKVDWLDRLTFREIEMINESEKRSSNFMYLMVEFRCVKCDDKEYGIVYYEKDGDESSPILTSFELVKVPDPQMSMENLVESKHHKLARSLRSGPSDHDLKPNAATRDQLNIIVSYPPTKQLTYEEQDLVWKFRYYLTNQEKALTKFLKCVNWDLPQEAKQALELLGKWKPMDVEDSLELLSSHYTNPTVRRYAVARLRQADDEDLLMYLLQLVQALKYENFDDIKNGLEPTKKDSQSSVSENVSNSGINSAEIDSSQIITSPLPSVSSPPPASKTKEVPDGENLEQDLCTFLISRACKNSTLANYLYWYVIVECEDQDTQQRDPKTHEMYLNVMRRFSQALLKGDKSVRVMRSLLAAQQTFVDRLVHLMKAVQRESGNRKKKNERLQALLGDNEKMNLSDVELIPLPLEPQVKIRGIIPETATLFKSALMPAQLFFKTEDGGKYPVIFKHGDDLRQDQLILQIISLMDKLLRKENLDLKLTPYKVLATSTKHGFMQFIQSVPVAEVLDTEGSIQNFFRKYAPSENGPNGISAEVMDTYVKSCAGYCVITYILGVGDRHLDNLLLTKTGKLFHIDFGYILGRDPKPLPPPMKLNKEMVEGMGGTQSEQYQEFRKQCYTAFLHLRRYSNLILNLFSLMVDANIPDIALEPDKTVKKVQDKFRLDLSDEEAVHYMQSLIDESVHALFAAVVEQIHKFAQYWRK
Chain of PI 3-kinase alpha (P42336 whole entry): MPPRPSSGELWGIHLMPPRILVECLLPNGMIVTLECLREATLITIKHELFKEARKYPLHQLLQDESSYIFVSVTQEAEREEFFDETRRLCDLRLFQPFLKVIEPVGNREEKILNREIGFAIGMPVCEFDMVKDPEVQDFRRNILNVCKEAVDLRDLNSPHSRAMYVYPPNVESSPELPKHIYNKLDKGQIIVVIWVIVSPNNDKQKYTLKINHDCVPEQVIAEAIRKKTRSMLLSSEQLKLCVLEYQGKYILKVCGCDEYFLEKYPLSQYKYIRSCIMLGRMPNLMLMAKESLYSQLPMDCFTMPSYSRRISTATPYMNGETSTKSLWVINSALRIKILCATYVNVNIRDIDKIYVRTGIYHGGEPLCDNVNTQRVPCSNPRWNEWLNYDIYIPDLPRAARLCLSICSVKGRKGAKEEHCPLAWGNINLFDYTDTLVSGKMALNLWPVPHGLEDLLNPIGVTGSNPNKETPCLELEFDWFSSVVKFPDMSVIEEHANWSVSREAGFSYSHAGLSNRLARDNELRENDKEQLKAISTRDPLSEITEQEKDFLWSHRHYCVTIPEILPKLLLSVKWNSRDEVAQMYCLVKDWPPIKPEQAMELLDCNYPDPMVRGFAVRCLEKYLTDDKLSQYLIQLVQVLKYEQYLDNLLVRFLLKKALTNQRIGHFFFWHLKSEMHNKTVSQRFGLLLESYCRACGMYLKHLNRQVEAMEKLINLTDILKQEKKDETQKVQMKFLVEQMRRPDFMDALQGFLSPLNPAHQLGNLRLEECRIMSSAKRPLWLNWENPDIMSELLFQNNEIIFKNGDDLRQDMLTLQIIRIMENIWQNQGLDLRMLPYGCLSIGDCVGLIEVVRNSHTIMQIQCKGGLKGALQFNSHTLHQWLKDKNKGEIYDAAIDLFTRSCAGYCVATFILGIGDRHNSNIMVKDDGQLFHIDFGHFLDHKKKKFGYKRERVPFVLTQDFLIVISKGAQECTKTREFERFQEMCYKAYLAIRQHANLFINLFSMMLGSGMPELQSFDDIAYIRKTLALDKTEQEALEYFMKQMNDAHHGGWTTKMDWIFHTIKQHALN
Chain of PI 3-kinase beta (P42338 whole entry): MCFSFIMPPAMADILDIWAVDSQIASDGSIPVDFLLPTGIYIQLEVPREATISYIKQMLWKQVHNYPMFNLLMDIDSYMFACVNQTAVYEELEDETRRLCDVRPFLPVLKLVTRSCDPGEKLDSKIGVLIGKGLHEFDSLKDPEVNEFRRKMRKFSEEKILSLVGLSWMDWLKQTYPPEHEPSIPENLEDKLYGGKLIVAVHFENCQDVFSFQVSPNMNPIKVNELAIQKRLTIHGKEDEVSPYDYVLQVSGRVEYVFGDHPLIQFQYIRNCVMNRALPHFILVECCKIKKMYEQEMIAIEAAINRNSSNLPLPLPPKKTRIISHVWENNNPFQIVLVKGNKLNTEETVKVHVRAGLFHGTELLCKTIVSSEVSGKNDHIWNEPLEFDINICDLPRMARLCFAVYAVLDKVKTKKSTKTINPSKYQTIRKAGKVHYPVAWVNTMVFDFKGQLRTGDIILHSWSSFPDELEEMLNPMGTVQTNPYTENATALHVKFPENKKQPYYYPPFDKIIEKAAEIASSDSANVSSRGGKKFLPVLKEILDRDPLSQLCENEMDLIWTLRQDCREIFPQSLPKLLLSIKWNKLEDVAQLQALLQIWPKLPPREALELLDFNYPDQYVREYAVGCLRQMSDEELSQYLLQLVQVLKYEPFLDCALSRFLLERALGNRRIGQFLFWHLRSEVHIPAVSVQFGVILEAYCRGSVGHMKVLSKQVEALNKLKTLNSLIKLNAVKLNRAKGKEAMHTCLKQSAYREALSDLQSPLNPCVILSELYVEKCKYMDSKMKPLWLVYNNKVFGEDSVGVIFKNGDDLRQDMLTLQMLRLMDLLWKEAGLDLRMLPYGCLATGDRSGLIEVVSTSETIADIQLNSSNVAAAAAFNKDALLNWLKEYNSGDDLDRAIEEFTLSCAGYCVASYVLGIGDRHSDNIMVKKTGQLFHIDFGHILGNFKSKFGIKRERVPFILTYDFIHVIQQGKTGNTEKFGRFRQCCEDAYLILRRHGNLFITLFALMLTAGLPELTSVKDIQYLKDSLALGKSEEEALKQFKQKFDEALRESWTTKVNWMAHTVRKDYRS
Chain of PI 3-kinase beta (P27986 461-568 partner): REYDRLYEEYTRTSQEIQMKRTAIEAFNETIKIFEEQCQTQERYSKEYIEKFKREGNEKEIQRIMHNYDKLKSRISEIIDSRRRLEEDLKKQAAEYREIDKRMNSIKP
Procedure for PI 3-kinase delta: (§1) TR-FRET Adapta Assay for PI 3-Kinase Gamma (E), PI 3-Kinase Delta (F)
(§2) The TR-FRET Adapta™ Universal Kinase Assay Kit was purchased from Invitrogen Corporation (Carlsbad/CA, USA) (Cat. No. PV5099).
(§3) PIK3CD substrate phosphatidylinositol (PI) was obtained from Invitrogen (vesicules consisting of 2 mM phosphatidylinositol (PI) in 50 mM HEPES pH7.5; Cat. No. PV5371). PIK3CG substrate phosphatidylinositol-4,5-bisphosphate (PIP(4,5)2 was obtained from Invitrogen (PIP2:PS large unilamellar vesicules consisting of 1 mM PIP2: 19 mM PS in 50 mM HEPES pH7.5, 3 mM MgCl2, 1 mM EGTA; Cat. No. PV5100).
(§4) Time-Resolved Fluorescence Resonance Energy Transfer (TR-FRET) is a technology based on energy transfer between two adjacent dyes, from an excited electron in one dye (the donor) to an electron of an adjacent dye (the acceptor) through resonance, then released as a photon. This energy transfer is detected by an increase in the fluorescence emission of the acceptor, and a decrease in the fluorescence emission of the donor. TR-FRET assays for protein kinases use a long-lifetime lanthanide Terbium or Europium chelates as the donor species which overcome interference from compound autofluorescence or light scatter from precipitated compounds, by introducing a delay after excitation by a flashlamp excitation source. Results are often expressed as a ratio of the intensities of the acceptor and donor fluorophores. The ratiometric nature of such a value corrects for differences in assay volumes between wells, as well as corrects for quenching effects due to colored compounds. The Adapta™ assay can be divided into two phases: a kinase reaction phase and an ADP detection phase. In the kinase reaction phase, all kinase reaction components are added to the well and the reaction is allowed to incubate for a set period of time specific for each kinase. […] In the presence of an inhibitor, the amount of ADP formed by the kinase reaction is reduced, and the resulting intact antibody-tracer interaction maintains a high TR-FRET signal.
(§5) 50 nL of compound dilutions were dispensed onto white 384-well small volume polystyrene plate. Then 5 μL of either PI 3-kinase gamma or PI 3-kinase delta and lipid substrate (PI or PIP2:PS) followed by 5 μL of ATP (final assay volume 10 μL) are incubated at RT. The standard reaction buffer for the Adapta™ TR-FRET assay contained 10 mM Tris-HCl pH 7.5, 3 mM MgCl2, 50 mM NaCl, 1 mM DTT, 0.05% CHAPS 3-[(3-cholamidopropyl)dimethylammonio]-1-propanesulfonate).
(§6) Data are analyzed using Excel fit software or Graphpad Prism. IC50 values were derived by fitting a sigmoidal dose-response curve to a plot of assay readout over inhibitor concentration. All fits were performed with the program XLfit4 (ID Business Solutions, Guildford, UK). […] All fits were performed with the program XLfit4 (ID Business Solutions, Guildford, UK).
Procedure for PI 3-kinase gamma: as §1, §2, §3, §4, §5, §6
Procedure for mTOR: Lanthascreen™ Kinase Binding Assay for mTOR (G)
Binding of an inhibitor to the kinase competes for binding with the tracer, resulting in a loss of FRET.
50 nL of compound dilutions were dispensed onto white 384-well small volume polystyrene plate.

For `Cc1ccc(S(=O)(=O)NCC(C)(C)O)cc1-c1cnc(N)c(-c2cn(C)nc2C)n1` [Example 13], the pIC50 (as a rule, −log10 of the IC50, conventionally taken in molar units) on Vps34 is < 5.00; at PI 3-kinase beta it was 5.96; at mTOR it was < 5.00; on PI 4-kinase beta, 5.19.

As to `Cc1ncc(-c2nc(-c3cc(S(=O)(=O)NCCO)ccc3C)cnc2N)s1` [Example 45, 3-(5-Amino-6-(2-methylthiazol-5-yl)pyrazin-2-yl)-N-(2-hydroxyethyl)-4-methylbenzenesulfonamide], the pIC50 at PI 3-kinase delta (read-out: Assay F PI3Kδ IC50) was 6.64; at Vps34, 5.96; at PI 3-kinase beta, 6.28; on PI 4-kinase beta, 5.80.

Regarding `Cc1ncc(-c2nc(-c3cc(S(=O)(=O)NCC4COCCN4C)ccc3C)cnc2N)s1` (stereo not drawn) [Example 45.12, 3-(5-Amino-6-(2-methylthiazol-5-yl)pyrazin-2-yl)-4-methyl-N-((4-methylmorpholin-3-yl)methyl)benzenesulfonamide], the pIC50 is 7.30 at PI 3-kinase alpha; 7.00 on PI 3-kinase delta (read-out: Assay F PI3Kδ IC50); 5.59 on Vps34; 6.41 on PI 3-kinase beta; 7.82 at PI 3-kinase gamma; 5.85 at PI 4-kinase beta.

Regarding `Cc1cc(-c2nc(-c3cc(S(=O)(=O)NCC(C)(C)O)ccc3C)cnc2N)on1` [Example 88, 3-(5-Amino-6-(3-methylisoxazol-5-yl)pyrazin-2-yl)-N-(2-hydroxy-2-methylpropyl)-4-methylbenzenesulfonamide], the pIC50 was 5.96 on PI 3-kinase delta (read-out: Assay F PI3Kδ IC50), 5.66 at PI 3-kinase beta and 5.21 at PI 4-kinase beta.

Take `Cc1ccc(S(=O)(=O)NCC(C)(C)CO)cc1-c1cnc(N)c(-c2nc(C3CC3)no2)n1` [Example 93, 3-(5-Amino-6-(3-cyclopropyl-1,2,4-oxadiazol-5-yl)pyrazin-2-yl)-N-(3-hydroxy-2,2-dimethylpropyl)-4-methylbenzenesulfonamide]: the pIC50 at Vps34, at mTOR and at PI 4-kinase beta was < 5.04 throughout.

On to `Cc1ccc(S(=O)(=O)NCCC(C)(C)O)cc1-c1cnc(N)c(-c2ccnc(F)c2)n1` [Example 119.10], for which the pIC50 is 6.92 at PI 3-kinase alpha; 7.00 at PI 3-kinase delta (read-out: Assay F PI3Kδ IC50); < 5.04 on Vps34; 5.19 on PI 3-kinase beta; 7.52 at PI 3-kinase gamma; 5.19 at mTOR. On PI 4-kinase beta, the pIC50 was < 5.04.

With `Cc1ccc(S(=O)(=O)NCCC(C)(C)O)cc1-c1cnc(N)c(-c2cncnc2)n1` [Example 119.20], the pIC50 on PI 3-kinase alpha was 5.83; on PI 3-kinase delta (read-out: Assay F PI3Kδ IC50), 5.68; at Vps34 it was < 5.04; on PI 3-kinase beta, < 5.04; at PI 3-kinase gamma it was 6.29; on mTOR, 5.32. The pIC50 at PI 4-kinase beta is < 5.04.

In the case of `Cc1nc(-c2nc(-c3cc(S(=O)(=O)NCCC(C)(C)O)ccc3C)cnc2N)cs1` [Example 119.30], the pIC50 at PI 3-kinase alpha is 6.77; at PI 3-kinase delta (read-out: Assay F PI3Kδ IC50), 6.96; on Vps34 it was < 5.04; at PI 3-kinase beta, 5.82; at PI 3-kinase gamma, 7.89; at mTOR, 5.54. For the same molecule, on PI 4-kinase beta, the pIC50 is 5.33.

Consider `Cc1ncc(-c2nc(-c3cc(S(=O)(=O)NCCC(C)(C)O)ccc3C)cnc2N)o1` [Example 119.40], for which the pIC50 is 6.82 at PI 3-kinase alpha; 6.74 on PI 3-kinase delta (read-out: Assay F PI3Kδ IC50); < 5.00 at Vps34; 5.46 at PI 3-kinase beta; 7.64 at PI 3-kinase gamma; < 5.00 on mTOR. In addition, the pIC50 at PI 4-kinase beta is 5.21.

Consider `Cc1ccc(S(=O)(=O)N2CC(F)(F)C(F)(F)C2)cc1-c1cnc(N)c(-n2cncn2)n1` [Example 127.8], for which the pIC50 on PI 3-kinase alpha was 5.22; at PI 3-kinase delta (read-out: Assay F PI3Kδ IC50), < 5.00; on Vps34 it was < 5.00; on PI 3-kinase beta it was < 5.00; on PI 3-kinase gamma it was 6.00; on mTOR, < 5.00. In addition, the pIC50 at PI 4-kinase beta was < 5.00.

Consider `Cc1ccc(S(=O)(=O)NCCCCCO)cc1-c1cnc(N)c(-n2cncn2)n1` [Example 127.9], for which the pIC50 on PI 3-kinase alpha is 5.64; at PI 3-kinase delta (read-out: Assay F PI3Kδ IC50), 5.52; at Vps34 it was < 5.00; at PI 3-kinase beta, < 5.00; at PI 3-kinase gamma it was 5.80; on mTOR, < 5.00. Besides, the pIC50 at PI 4-kinase beta is < 5.00.

Consider `COCCCNS(=O)(=O)c1ccc(C)c(-c2cnc(N)c(-n3cncn3)n2)c1` [Example 127.10], for which the pIC50 on PI 3-kinase alpha was 5.77; on PI 3-kinase delta (read-out: Assay F PI3Kδ IC50), 5.26; on Vps34 it was < 5.00; at PI 3-kinase beta, 5.04; on PI 3-kinase gamma it was 6.49; on mTOR, < 5.00. The pIC50 on PI 4-kinase beta is < 5.00.

Regarding `Cc1ccc(S(=O)(=O)NCC2(O)CCCCC2)cc1-c1cnc(N)c(-n2cncn2)n1` [Example 127.11], the pIC50 on PI 3-kinase alpha is 6.01; at PI 3-kinase delta (read-out: Assay F PI3Kδ IC50), 6.12; on Vps34, < 5.00; on PI 3-kinase beta, 5.89; on PI 3-kinase gamma it was 6.57; on mTOR it was < 5.00. On PI 4-kinase beta, the pIC50 is < 5.00.

With `Cc1ccc(S(=O)(=O)NCC2CCN(C)C2)cc1-c1cnc(N)c(-n2cncn2)n1` (stereo not drawn) [Example 127.18], the pIC50 on PI 3-kinase alpha was 5.72; at PI 3-kinase delta (read-out: Assay F PI3Kδ IC50), 6.42; on Vps34, < 5.00; at PI 3-kinase beta, 5.62; at PI 3-kinase gamma, 5.89; on mTOR, < 5.00. The pIC50 on PI 4-kinase beta was < 5.00.

For `Cc1ccc(S(=O)(=O)N[C@@H]2CCOC2)cc1-c1cnc(N)c(-n2cncn2)n1` [Example 127.20], the pIC50 was 6.01 at PI 3-kinase alpha; 5.77 on PI 3-kinase delta (read-out: Assay F PI3Kδ IC50); < 5.00 at Vps34; 5.29 at PI 3-kinase beta; 6.89 at PI 3-kinase gamma; < 5.00 on mTOR. For the same molecule, the pIC50 on PI 4-kinase beta is 5.28.

Consider `Cc1ccc(S(=O)(=O)NC2CCOC2=O)cc1-c1cnc(N)c(-n2cncn2)n1` (stereo not drawn) [Example 127.30], for which the negative-log IC50 (pIC50) on PI 3-kinase alpha was 5.72; on PI 3-kinase delta (read-out: Assay F PI3Kδ IC50), 5.80; at Vps34, < 5.00; on PI 3-kinase beta, 5.28; on PI 3-kinase gamma, 6.89; at mTOR, < 5.00. Moreover, the pIC50 at PI 4-kinase beta is 5.11.

Turning to `Cc1ccc(S(=O)(=O)NCC2(CO)CC2)cc1-c1cnc(N)c(-n2cncn2)n1` [Example 127.38], the pIC50 on PI 3-kinase alpha was 6.27; on PI 3-kinase delta (read-out: Assay F PI3Kδ IC50) it was 5.55; at Vps34 it was < 5.00; on PI 3-kinase beta, 5.46; on PI 3-kinase gamma, 7.00; on mTOR, < 5.00. At PI 4-kinase beta, the pIC50 is 5.17.

Take `Cc1ccc(S(=O)(=O)NC[C@@H]2CCC(C)(C)O2)cc1-c1cnc(N)c(-n2cncn2)n1` [Example 127.40]: the pIC50 on PI 3-kinase alpha was 6.11; against PI 3-kinase delta it was 5.85; at Vps34 it was < 5.00; on PI 3-kinase beta, 5.82; on PI 3-kinase gamma, 6.85; at mTOR, < 5.00. In addition, on PI 4-kinase beta, the pIC50 was 5.12.

With `Cc1ccc(S(=O)(=O)N[C@@H](C)CO)cc1-c1cnc(N)c(-n2cncn2)n1` [Example 127.41], the pIC50 on PI 3-kinase alpha is 5.77; at PI 3-kinase delta (read-out: Assay F PI3Kδ IC50), 5.18; at Vps34, < 5.00; on PI 3-kinase beta, 5.46; on PI 3-kinase gamma, 6.57; on mTOR, < 5.00. The pIC50 on PI 4-kinase beta was 5.38.

As for `Cc1ccc(S(=O)(=O)NC(C)CO)cc1-c1cnc(N)c(-n2cncn2)n1` (stereo not drawn) [Example 127.42], the pIC50 on PI 3-kinase alpha is 5.77; on PI 3-kinase delta (read-out: Assay F PI3Kδ IC50), < 5.00; at Vps34, < 5.00; at PI 3-kinase beta it was 5.23; at PI 3-kinase gamma, 6.10; at mTOR it was < 5.00. Also, the pIC50 at PI 4-kinase beta is 5.15.

For the molecule `Cc1ccc(S(=O)(=O)NC(C)C(C)C)cc1-c1cnc(N)c(-n2cncn2)n1` (stereo not drawn) [Example 127.44], the pIC50 was 6.14 on PI 3-kinase alpha; 5.85 on PI 3-kinase delta (read-out: Assay F PI3Kδ IC50); < 5.00 on Vps34; 5.66 at PI 3-kinase beta; 6.92 at PI 3-kinase gamma; 5.43 at mTOR. Also, the pIC50 on PI 4-kinase beta is 5.21.

Consider `Cc1ccc(S(=O)(=O)NCC2(CO)CCC2)cc1-c1cnc(N)c(-n2cncn2)n1` [Example 127.49], for which the pIC50 at PI 3-kinase alpha was 7.00; at PI 3-kinase delta (read-out: Assay F PI3Kδ IC50), 6.49; at Vps34 it was < 5.00; on PI 3-kinase beta, 6.34; at PI 3-kinase gamma, 7.89; on mTOR it was 5.15. The pIC50 on PI 4-kinase beta is 5.40.

Take `Cc1ccc(S(=O)(=O)NCC2(CO)CCOCC2)cc1-c1cnc(N)c(-n2cncn2)n1` [Example 127.50]: the pIC50 is 6.08 on PI 3-kinase alpha; 5.68 at PI 3-kinase delta (read-out: Assay F PI3Kδ IC50); < 5.00 at Vps34; 5.85 at PI 3-kinase beta; 7.49 on PI 3-kinase gamma; 5.25 at mTOR. Besides, the pIC50 at PI 4-kinase beta is < 5.00.

Regarding `Cc1ccc(S(=O)(=O)NC2CCSC2=O)cc1-c1cnc(N)c(-n2cncn2)n1` (stereo not drawn) [Example 127.51], the pIC50 was 6.22 at PI 3-kinase alpha; 6.24 on PI 3-kinase delta (read-out: Assay F PI3Kδ IC50); < 5.00 at Vps34; 5.72 on PI 3-kinase beta; 7.19 on PI 3-kinase gamma; 5.23 at mTOR. For the same molecule, the pIC50 at PI 4-kinase beta is 5.28.

For the origin of these results see patent US10004732B2 (Novartis AG, priority 2014, dated 2018).
